{"source": "patent US8962576B2", "about": "“Compositions and method for improving endothelial function and cardiovascular health” (Natreon, Inc., priority 2012, dated 2015)", "test_system": "Type 2 Diabetic Subjects", "assay": "Marker of endothelial function: reflection index (RI), study (c)", "assay_type": "in vivo, human", "details": "CAPROS 250 mg twice daily, Atorvastatin 10 mg daily, n = 20", "description": "A salbutamol (albuterol) challenge test employing digital volume plethysmography was used to assess endothelial function as reported by Chowienczyk et al., “Photoplethysmographic assessment of pulse wave reflection: blunted response to endothelium dependant beta 2-adrenergic vasodilation in type 2 diabetes mellitus,” J. Am. Coll. Cardiol. (1999 December) 34(7):2007-14; and Naidu, et al., “Comparison of two β2 adrenoceptor agonists by different routes of administration to assess human endothelial function,” Indian J. Pharmacol. (2007) 39:168-9. The patients were examined in supine position after 5 minutes of rest. A digital volume pulse (DVP) was obtained using a photo plethysmograph (Pulse Trace PCA2, PT200, Micro Medical, Gallingham, Kent, UK) transmitting infrared light at 940 nm, placed on the index finger of the right hand. The signal from the plethysmograph was digitized using a 12 bit analogue to digital converter with a sampling frequency of 100 Hz. DVP waveforms were recorded over 20 second period and the height of the late systolic/early diastolic portion of the DVP was expressed as a percentage of the amplitude of the DVP to yield the reflection index (RI), per the procedure described in detail by Millasseau et al., “Determination of age related increases in large artery stiffness by digital pulse contour analysis,” Clinical Science (2002) 103: 371-377. Three DVP recordings were taken, and measurements of reflection index (RI) were calculated and the mean value was determined. Patients were then administered 400 μg of salbutamol by inhalation. After 15 minutes three measurements of RI were obtained again and the difference in mean RI before and after administration of salbutamol was used for assessing endothelial function. A change of ≦6% in RI post-salbutamol was considered as endothelial dysfunction.\nStudy (c) design. […]", "data": [{"smiles": "CC(C)c1c(C(=O)Nc2ccccc2)c(-c2ccccc2)c(-c2ccc(F)cc2)n1CC[C@@H](O)C[C@@H](O)CC(=O)O", "note": "[Atorvastatin]", "values": [{"measurement": "Absolute change in RI", "setting": "12 weeks", "result": "−8.35 ± 4.17", "unit": "%"}, {"measurement": "RI(%), Mean", "setting": "Post TT, 12 weeks", "result": "−11.03$ %"}, {"measurement": "RI(%), Mean", "setting": "Pre TT", "result": "−2.68", "unit": "%"}]}]}
